Source: patent publication US20230088214A1, “GLYCOLATE OXIDASE INHIBITORS FOR THE TREATMENT OF DISEASE” (BIOMARIN PHARMACEUTICAL INC., priority 2019, published 2023)

Experiments:
GO [1] = target: T1, GO (Mus musculus, UniProt Q9WU19); assay: GO Cellular Assay: Primary Hepatocyte Assay (Assay 2); assay type: cell-based; conditions: primary mouse hepatocytes, 5 mM glycolate, oxalate at 72 hours; read-out: Range of IC50 values calculated from the cellular assays (Assay 2)
T1 construct: endogenous in cells; host or cells: primary hepatocytes from male C56BL/6 (so in the source) mouse liver
T1 sequence (Q9WU19 1-370): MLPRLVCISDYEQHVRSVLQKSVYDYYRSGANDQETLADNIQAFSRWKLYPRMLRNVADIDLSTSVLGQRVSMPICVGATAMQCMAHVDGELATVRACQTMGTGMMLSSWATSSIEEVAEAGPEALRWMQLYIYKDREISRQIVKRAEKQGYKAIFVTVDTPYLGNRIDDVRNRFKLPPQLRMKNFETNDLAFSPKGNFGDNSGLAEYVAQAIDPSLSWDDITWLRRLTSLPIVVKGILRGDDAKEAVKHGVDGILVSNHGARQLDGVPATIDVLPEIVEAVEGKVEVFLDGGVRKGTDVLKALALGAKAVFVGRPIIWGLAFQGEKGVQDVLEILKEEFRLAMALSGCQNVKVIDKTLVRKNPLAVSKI
Experimental: Assay 2: GO Cellular Assay: Primary Hepatocyte Assay
Primary hepatocytes were used for a GO cellular assay as previously described (Martin-Higueras et al., Mol Ther. 24(4): 719-725 (2016)). Hepatocytes were isolated using an in situ collagenase perfusion method from male C56BL/6 mice liver. The freshly isolated hepatocytes were cultured in six well plates with Williams E medium supplemented with 5% fetal bovine serum, 2 mM 1-glutamine, 100 U/ml penicillin, 100 μg/ml streptomycin, 2.2 mUI/ml insulin and 0.3 μg/ml hydrocortisone. After 5 hours, the medium was changed to Williams E complete medium (Biochrom, Cambridge, UK) without serum and cells were treated with various concentrations of inhibitors in the presence of 5 mM glycolate. Culture medium was harvested at 72 hours after treatment, and the oxalate was quantified by using an oxalate oxidase assay kit (Trinity Biotech, Co Wicklow, Ireland) following manufacturer's instructions. The oxalate level was also confirmed by LC-MS method. The IC50 value for each measured compound was generated from sigmoidal dose-response (variable slope) curves with GraphPad Prism software (GraphPad Software, Inc., San Diego, Calif.) using the percent inhibition of GO activity relative to DMSO control.

GO [2] = target: T2, GO (Homo sapiens, UniProt Q9UJM8); assay: GO Cellular Assay: CHO-Agt Cells Assay (Assay 3); assay type: cell-based, Chinese hamster; set-up: host or cells: CHO cells (A.T.C.C. CCl-61) and engineered CHO-Agt cells (from Fargue/Danpure); conditions: 100 uM glycolic acid, glyoxylate by LC-MS at 2 hours, read-out: Range of IC50 values calculated from the cellular assays (Assay 3)
T2 sequence (Q9UJM8 1-370): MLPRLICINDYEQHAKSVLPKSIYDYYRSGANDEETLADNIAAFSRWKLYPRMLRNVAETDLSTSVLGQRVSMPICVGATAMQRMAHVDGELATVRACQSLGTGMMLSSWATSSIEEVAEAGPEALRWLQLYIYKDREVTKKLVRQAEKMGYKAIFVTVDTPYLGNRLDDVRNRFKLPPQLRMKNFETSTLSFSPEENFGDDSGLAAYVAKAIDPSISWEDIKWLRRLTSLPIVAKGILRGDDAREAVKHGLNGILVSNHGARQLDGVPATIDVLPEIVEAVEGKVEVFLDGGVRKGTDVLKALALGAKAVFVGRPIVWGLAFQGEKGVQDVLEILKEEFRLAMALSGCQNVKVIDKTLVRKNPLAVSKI
Experimental: Assay 3: GO Cellular Assay: CHO-Agt Cells Assay
CHO cells (A.T.C.C. number CCl-61) and engineered CHO-Agt cells (provided by Dr. Sonia Fargue and Dr. Christopher J. Danpure, Biochem. J. (2006) 394, 409-416) were used as a screening cellular assay for primary compounds. The cells were seeded in 20,000 cell/well in 96 well plate and cultured at 37-C under O2/CO2 (19:1) in Ham's F12 medium (Invitrogen) supplemented with fetal calf serum (10%, v/v), L-glutamine (2 mM), penicillin (100 units/ml) and streptomycin (100 pug/ml). After overnight culture, the cells were treated with various concentrations of inhibitors in the presence of 100 uM glycolic acid in HEPES buffer, pH7.0 (Sigma-Aldrich, Cat #124737). Culture medium was harvested at 2 hours after treatment for glyoxylate analysis and cell viability was measured by Cell Titer-Glo (Fisher Scientific, Cat #. PR-G7570).
The glyoxylate was quantified using LC-MS method. An aliquot of 120 μL medium was removed from each well and protein precipitated by adding 240 μL IS (100 ng/ml 13C2-glyoxylic acid, Sigma-Aldrich, Cat #G755002). The mixture was vortex-mixed well and centrifuged at 3900 rpm for 15 min, 4° C. 100 μL supernatant was then mixed with 10 μL formic acid and 100 μL 400 μM DNPH (2,4-dinitrophenylhydrazine) (Shanghai Runjie Huaxue Shiji Ltd., Cat #A0000436) and the mixture was shaken for 30 minutes. A 3 μL mixture of reaction mixture was injected for LC-MS/MS analysis. (Behnam J T, Williams E L, Brink S, Rumsby G, Danpure C J., “Reconstruction of human hepatocyte glyoxylate metabolic pathways in stably transformed Chinese-hamster ovary cells”, Biochem J. 2006 Mar. 1; 394 (Pt 2):409-16.)

SMILES	IC50 (GO [1]) [nM]	IC50 (GO [2]) [nM]
OCc1[nH]nnc1Oc1ccc(-c2ccc(OC(F)(F)F)cc2)cc1 [Compound 487, (4-((4′-(trifluoromethoxy)-[1,1′-biphenyl]-4-yl)oxy)-1H-1,2,3-triazol-5-yl)methanol]	1000 to 5000	1000 to 5000
OCc1[nH]nnc1Sc1ccc(-c2ccc(N3CCCCC3)cc2)cc1 [Compound 492, (4-((4′-(piperidin-1-yl)-[1,1′-biphenyl]-4-yl)thio)-1H-1,2,3-triazol-5-yl)methanol]	< 1000	> 10000
OCc1[nH]nnc1Oc1ccc(-c2ccc(Cl)c(Cl)c2)cc1 [Compound 493-1, (4-((3′,4′-dichloro-[1,1′-biphenyl]-4-yl)oxy)-1H-1,2,3-triazol-5-yl)methanol]	< 1000	1000 to 5000
OCc1nn[nH]c1Oc1ccc(-c2ccc(N3CCCCC3)cc2)cc1 [Compound 496, (4-((4′-(piperidin-1-yl)-[1,1′-biphenyl]-4-yl)oxy)-1H-1,2,3-triazol-5-yl)methanol]	< 1000	< 1000

Next, values leading:

IC50 (GO [1]) [nM]	IC50 (GO [2]) [nM]	SMILES
< 1000	–	CCN(CC)C(=O)OCOC(=O)c1[nH]nnc1O[C@H]1CC[C@H](c2ccc(OC(F)(F)F)cc2)CC1 [Compound 370, ((diethylcarbamoyl)oxy)methyl 4-(((trans)-4-(4-(trifluoromethoxy)phenyl)cyclohexyl)oxy)-1H-1,2,3-triazole-5-carboxylate]
< 1000	–	CC(C)C(=O)OCCOC(=O)c1[nH]nnc1O[C@H]1CC[C@H](c2ccc(OC(F)(F)F)cc2)CC1 [Compound 371, 2-(isobutyryloxy)ethyl 4-(((trans)-4-(4-(trifluoromethoxy)phenyl)cyclohexyl)oxy)-1H-1,2,3-triazole-5-carboxylate]
< 1000	1000 to 5000	OCc1[nH]nnc1O[C@H]1CC[C@H](c2ccc(OC(F)(F)F)cc2)CC1 [Compound 488, (4-(((trans)-4-(4-(trifluoromethoxy)phenyl)cyclohexyl)oxy)-1H-1,2,3-triazol-5-yl)methanol]
< 1000	< 1000	O=Cc1[nH]nnc1O[C@H]1CC[C@H](c2ccc(OC(F)(F)F)cc2)CC1 [Compound 490, 4-(((trans)-4-(4-(trifluoromethoxy)phenyl)cyclohexyl)oxy)-1H-1,2,3-triazole-5-carbaldehyde]
< 1000	< 1000	O=Cc1[nH]nnc1Oc1ccc(-c2ccc(OC(F)(F)F)cc2)cc1 [Compound 491, 4-((4′-(trifluoromethoxy)-[1,1′-biphenyl]-4-yl)oxy)-1H-1,2,3-triazole-5-carbaldehyde]
